Laboratory results reported in US10765625B2, “Knottin-drug conjugates and methods of using the same” (THE BOARD OF TRUSTEES OF THE LELAND STANFORD JUNIOR …, priority 2016, dated 2020).

How the values were obtained:
Format in all cases: cell-based
[1] = test system: BxPC3 pancreatic cancer cells; experiment: Cell proliferation, CCK-8 colorimetric assay; details: 4 d after treatment, read-out: ED50 (nM), cell growth inhibition
Procedure: (§1) U87MG, and PANC-1 cells were grown in Dulbecco's Modified Eagle Medium (DMEM) with 10% fetal bovine serum (FBS) and 1% penicillin/streptomycin. MDA-MB-468 cells were grown in DMEM and Ham's F-12 medium (DMEM/F12) with 10% FBS and 1% penicillin/streptomycin. A2780 and BxPC3 cells were grown in Roswell Park Memorial Institute medium (RPMI) 1640+L-glutamine, with 10% FBS and 1% penicillin/streptomycin. D270 cells were grown in MEM (Richter's modification, no phenol red) with 10% FBS and 0.1% Gentamicin. Unless otherwise specified, cells were incubated at 37° C., 5% CO2. Flow cytometry was performed using an EMD Millpore Guava EasyCyte 8HT flow cytometer and the resulting data were evaluated using FlowJo software provided by TreeStar, Inc. Cell proliferation was measured using the Dojindo Cell Counting Kit-8 by replacing the media in each well with 100 μL of media containing 10% WST-8. After incubation for 1 h at 37° C., absorbance, A, at 450 nm was measured with a BioTek Synergy H4 microtiter plate reader. The background signal of CCK-8 alone was subtracted from all samples. Cell proliferation was then expressed as a percentage of absorbance relative to the control of untreated cells (Equation 2). Nonlinear regression analysis was performed using GraphPad Prism.
(§2) Having identified KDC 5d as a potent inhibitor of U87MG cells with desirable payload-release properties, its efficacy against a variety of other cell lines in comparison with Gemcitabine (3) was next tested. Cells were seeded in a 96-well plate at a density of 2,500 cells per well and grown overnight at 37° C., 5% CO2 in the media described in Section 1.3. Cells were subsequently treated with 100 μL of fresh media, containing 50 nM of 3 or 5d. Cells were incubated at 37° C., 5% CO2 for 4 d. Cell proliferation was measured using the Cell Counting Kit-8 by replacing the media in each well with 100 μL of media containing 10% WST-8. After incubation for 1 h at 37° C., absorbance at 450 nm was measured with a Synergy H4 microtiter plate reader. Cell proliferation was measured according to the method described in Section 1.3. Error bars represent the standard deviation of experiments performed in triplicate.

[2] = test system: A2780 ovarian cancer cells; experiment: Cell proliferation, CCK-8 colorimetric assay; details: 4 d after treatment, read-out: ED50 (nM), cell growth inhibition
Procedure: as §1, §2

D270 glioblastoma cells = experiment: Cell proliferation, CCK-8 colorimetric assay; details: 4 d after treatment, read-out: ED50 (nM), cell growth inhibition
Procedure: as §1, §2

[3] = test system: PANC-1 pancreatic cancer cells; experiment: Cell proliferation, CCK-8 colorimetric assay; details: 4 d after treatment, read-out: ED50 (nM), cell growth inhibition
Procedure: as §1, §2

[4] = test system: MDA-MB-468 breast cancer cells; experiment: Cell proliferation, CCK-8 colorimetric assay; details: 4 d after treatment, read-out: ED50 (nM), cell growth inhibition
Procedure: as §1, §2

U87MG cells = experiment: Premature drug release study: cell proliferation (CCK-8) with hENT1 inhibitor 6 co-administered; details: for Fold Increase in ED50 in U87MG Cells: ED50 with 6 / ED50 without 6, minus 1
Procedure: as §1
The relative extent of premature drug-release in the cases of 5a, 5c, and 5d was next determined in order to identify the linker best-suited for delivering the drug payload intracellularly. An established technique for blocking the cellular uptake of Gemcitabine by using S (4-nitrobenzyl)-6-thioinosine (6) was employed, which is known to inhibit human equilibrative nucleoside transporters, such as hENT1. Because hENT1 is a critical regulator of the cellular internalization of Gemcitabine, it was reasoned that by inhibiting its activity with 6, the cytotoxic effect of any drug payload that was released in the extracellular environment could be diminished. It was anticipated that this would allow the distinction between KDCs that were potent due to the undesirable release of Gemcitabine outside of the cell from those that released Gemcitabine intracellularly (FIG. 6). The extent of premature drug release in the extracellular environment was studied by inhibiting activity of nucleoside transporters (such as hENT1) of U87MG cells through the use of the hENT1 inhibitor S-(4-nitrobenzyl)-6-thioinosine (6). […] In a similar fashion, it was expected that for KDCs which released a significant amount of the drug payload in the extracellular environment, an increase in the concentration of 6 should result in a concomitant increase in ED50 value.
Media used to prepare varying concentrations of drug, protein, or protein-drug conjugate also contained varying concentrations of the hENT1 inhibitor, 6. Additionally, prior to treatment, cell were incubated at 37° C., 5% CO2 with fresh media containing the varying concentrations of 6 for 2 h. Cell proliferation was measured using the Cell Counting Kit-8 by replacing the media in each well with 100 μL of media containing 10% WST-8. After incubation for 1 h at 37° C., absorbance at 450 nm was measured with a Synergy H4 microtiter plate reader. ED50 values were determined by nonlinear regression analysis. Example dose-response curves for 3 (FIG. 7) and 5d (FIG. 8) are provided. Cell proliferation was measured according to the method described in Section 1.3. Error bars represent the standard deviation of experiments performed in triplicate.
These values were normalized as Fold Increase in ED50 (defined in Equation 2) by dividing the ED50 of each drug when 6 was co-administered at concentration=C by the ED50 of that same drug when no 6 was added, then subtracting 1 (thus, a “0-fold increase” would mean no increase, while a “1-fold increase” would mean that the ED50 value had doubled). Fold Increase in ED50 for each drug at each concentration of 6 is provided in Table 5, and these values were used to generate FIG. 9.

## CC(C)C[C@@H]1NC(=O)[C@@H]2CSSC[C@@H](C(=O)NCC(=O)O)NC(=O)[C@H](Cc3ccccc3)NC(=O)CNC(=O)[C@H](CC(N)=O)NC(=O)[C@@H]3CCCN3C(=O)CNC(=O)[C@@H]3CSSC[C@H](NC(=O)[C@H]([C@@H](C)O)NC(=O)[C@H](CC(C)C)NC(=O)[C@@H]4CCCN4C(=O)[C@@H]4CCCN4C(=O)[C@H](CC(N)=O)NC(=O)[C@H](CC(=O)O)NC(=O)CNC(=O)[C@H](CCCNC(=N)N)NC(=O)[C@@H]4CCCN4C(=O)[C@H](CCCNC(=N)N)NC(=O)[C@@H]4CCCN4C(=O)[C@@H](NC(=O)CN)CSSC[C@H](NC(=O)CNC(=O)[C@H](C)NC1=O)C(=O)N[C@@H](C(C)C)C(=O)N3)C(=O)N[C@@H](CCCn1cc(CCC(=O)N[C@H](C(=O)N[C@@H](C)C(=O)Nc3ccc(COC(=O)Nc4ccn([C@@H]5O[C@H](CO)[C@@H](O)C5(F)F)c(=O)n4)cc3)C(C)C)nn1)C(=O)N[C@@H](CCC(N)=O)C(=O)N[C@@H](CC(=O)O)C(=O)N[C@@H](CO)C(=O)N[C@@H](CC(=O)O)C(=O)N2 [5d]
[1]
  EC50: 1.8 ± 0.8 nM
[2]
  EC50: 2.3 ± 0.5 nM
D270 glioblastoma cells
  EC50: 7.9 ± 0.8 nM
[3]
  EC50: 2.1 ± 0.2 nM
[4]
  EC50: 0.6 ± 0.1 nM
U87MG cells; U87MG cells, increasing concentrations of 6 up to 10 μM
  Effect of hENT1 inhibitor 6 on potency (ED50) (in words): no effect on the potency
U87MG cells; [6] = 0 nM
  Fold Increase in ED50 in U87MG Cells: 0
U87MG cells; [6] = 1 nM
  Fold Increase in ED50 in U87MG Cells: −0.3 ± 0.3
U87MG cells; [6] = 10 nM
  Fold Increase in ED50 in U87MG Cells: −0.6 ± 0.6
U87MG cells; [6] = 100 nM
  Fold Increase in ED50 in U87MG Cells: 0.6 ± 1.0
U87MG cells; [6] = 1000 nM
  Fold Increase in ED50 in U87MG Cells: 1.2 ± 1.2
U87MG cells; [6] = 10000 nM
  Fold Increase in ED50 in U87MG Cells: 8.1 ± 5.4
